Reference: article PMC12280925, “Structure-based discovery of positive allosteric modulators of the A1 adenosine receptor” (Proceedings of the National Academy of Sciences of the …, 2025)
Numbering of substitutions follows the chain as printed. pKd: −log10 of the molar value.

Columns and labels:
[1] = molecular target: T1, A1R (A1R-FlpInCHO cells) (Homo sapiens, UniProt P30542); test: Inhibition of forskolin-stimulated cAMP accumulation: NECA potency ± compound and compound alone; type: cell-based
T1 sequence (P30542 1-326): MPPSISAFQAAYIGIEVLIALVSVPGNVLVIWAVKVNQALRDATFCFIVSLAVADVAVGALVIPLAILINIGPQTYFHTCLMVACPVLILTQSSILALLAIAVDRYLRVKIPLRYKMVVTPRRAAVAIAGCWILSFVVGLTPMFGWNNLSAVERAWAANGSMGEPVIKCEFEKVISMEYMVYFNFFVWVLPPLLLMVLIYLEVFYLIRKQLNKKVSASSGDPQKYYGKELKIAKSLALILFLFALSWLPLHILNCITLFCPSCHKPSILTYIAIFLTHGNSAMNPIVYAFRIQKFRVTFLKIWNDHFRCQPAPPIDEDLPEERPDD
Protocol: (§1) FlpInCHO cell lines and cortical neuron cells were seeded into transparent 96-well plates at 20,000 cells/well and incubated for 16 to 20 h in a humidified incubator at 37 °C in 5% CO2. […] Compounds were added at either a single concentration (10 or 30 μM) or a concentration range for full interaction studies (3 to 30 μM), and plates were incubated for 30 to 60 min at 37 °C in a humidified chamber. […] After 30 min incubation at 37 °C, the reaction was terminated by rapid removal of buffer and the addition of 50 μL/well cold ethanol. […] Agonist concentration–response curves were normalized to the response mediated by 3 µM forskolin […].
Response=Basal+Emax-Basal×A/EC50+A,

[2] = set-up: method as in PMID 34497422; details: rat model; cited from earlier work
[3] = molecular target: T2, A1R S246^6.47A mutant (Homo sapiens, UniProt P30542, S246A); set-up: method as in PMID 34497422; details: cited from earlier work
T2 construct: expressed in transfected cells; host or cells: FlpInCHO cells, stably transfected
T2 sequence (P30542 1-326 S246A): T1 sequence (P30542 1-326) with S246A

[4] = molecular target: T3, A1R G279^7.44A mutant (Homo sapiens, UniProt P30542, G279A); set-up: method as in PMID 34497422; details: cited from earlier work
T3 construct: expressed in transfected cells; host or cells: FlpInCHO cells, stably transfected
T3 sequence (P30542 1-326 G279A): T1 sequence (P30542 1-326) with G279A

[5] = set-up: method as in PMID 34497422; details: in vitro liver microsome assays; cited from earlier work
[6] = molecular target: T1, A1R (A1R-FlpInCHO cells); test: NECA/allosteric ligand interaction in cAMP accumulation, operational model of allosterism; type: cell-based
Protocol: as §1
[5] E=EmτAAKB+αβ[B]+τB[B]KA^n/AKB+KAKB+[B]KA+α[A][B]^n+τAAKB+αβ[B]+τB[B]KA^n
Orthosteric agonist and allosteric ligand affinity were constrained to values determined from radioligand binding.

[7] = molecular target: T4, A1R allosteric site (A1R-FlpINCHO cells, wild type) (Homo sapiens, UniProt P30542); test: Whole-cell [3H]DPCPX interaction binding with NECA, allosteric ternary complex model
T4 sequence (P30542 1-326): T1 sequence (P30542 1-326)
Protocol: [^3H]DPCPX (8-cyclopentyl-1,3-dipropylxanthine, [dipropyl-2,3-^3H(N)]) whole-cell binding assays were performed on FlpINCHO cells stably expressing either WT (nontagged or 3xHA-tagged) or mutant 3xHA-A1R. Cells were seeded into a transparent 96-well plate at 40,000 cells/well in DMEM containing 10% FBS. Following 8 h incubation in a humidified environment at 37 °C in 5% CO2, cells were washed and maintained in serum-free DMEM for approximately 18 h at 37 °C in 5% CO2. […] Assays were terminated by washing twice with 100 μL/well cold phosphate-buffered saline, followed by the addition of 100 μL OptiPhase Supermix™ scintillation cocktail and bound radioactivity measured using a MicroBeta^2 ™ plate counter (PerkinElmer).
Equilibrium binding interaction experiments were fitted to the following allosteric ternary complex model.[3] Y=BmaxA/A+KAKB/αAB+KB1+[I]/KI+[B]/KB+αII[B]/KIKB,
A cooperativity factor α > 1 describes positive cooperativity; a value 0 < α < 1 describes negative cooperativity, and a value of α = 1 describes neutral cooperativity.

For Nc1scc(-c2cc(C(F)(F)F)cc(C(F)(F)F)c2)c1C(=O)c1ccc(Cl)cc1 [compound 1, reference compound], the “inhibition of 3 μM forskolin-stimulated cAMP accumulation” value ([1]; 30 μM compound in the absence of NECA, for NECA: maximal response) is listed as 83%, the “functional response relative to NECA maximal response” value ([1]; 30 μM, absence of NECA) is listed as “approximately 80%” and the “in vivo analgesic efficacy” value [2] is listed as “in vivo analgesic efficacy”. The “effect of binding site mutation on affinity” value [3] was “small (four- to seven-fold) but significant reduction”, the “effect of binding site mutation on affinity” value [4] was “small (four- to seven-fold) but significant reduction” and the “metabolism in liver microsomes” value [5] was “rapid metabolism”. For the same molecule, the “allosteric ligand efficacy (logτB)” value ([6]; allosteric agonism in cAMP) was 0.56 ± 0.06, the “functional cooperativity with NECA (logαβ)” value ([6]; cAMP) was 0.78 ± 0.15 and the “allosteric ligand affinity (pKB)” value ([7]; allosteric ternary complex model, n = 4) was 5.18 ± 0.21. The “binding cooperativity with NECA (logα)” value ([7]; allosteric ternary complex model, orthosteric agonist NECA) was 2.09 ± 0.22, the “positive cooperativity between PAM and NECA” value ([7]; approximate, from logα) was “approximately 100 fold” and the pKd ([7]; approximate, from pKB, read-out: affinity for the A1R allosteric site) was ~5.10.
